# Assay results reported in the NIST ThermoML archive (doi:10.1016/j.fluid.2019.01.028).
# ± gives the expanded uncertainty stated by the source.
# Test: activity coefficient (dimensionless); of the first substance listed, at infinite dilution; xn = mol fraction of the nth substance listed
# Conditions: Liquid, Chromatography, x1 = 0
Compound,activity coefficient (313 K),activity coefficient (323 K),activity coefficient (333 K),activity coefficient (343 K),activity coefficient (353 K)
"Cc1ccc(C)o1 [2,5-dimethylfuran] + CCCC[n+]1ccn(C)c1.O=S(=O)([N-]S(=O)(=O)C(F)(F)F)C(F)(F)F",1.83 ± 0.16,1.85 ± 0.16,1.86 ± 0.16,1.88 ± 0.17,1.88 ± 0.17
"Cc1ccc(C)o1 [2,5-dimethylfuran] + CCCCn1cc[n+](C)c1.[Cl-]",9.51 ± 0.87,9.6 ± 0.88,9.61 ± 0.88,9.64 ± 0.89,9.76 ± 0.9
CCc1ccco1 [2-ethylfuran] + CCCC[n+]1ccn(C)c1.O=S(=O)([N-]S(=O)(=O)C(F)(F)F)C(F)(F)F,1.47 ± 0.13,1.49 ± 0.13,1.51 ± 0.13,1.52 ± 0.13,1.54 ± 0.13
CCc1ccco1 [2-ethylfuran] + CCCCn1cc[n+](C)c1.[Cl-],5.85 ± 0.54,6 ± 0.55,6.12 ± 0.56,6.23 ± 0.57,6.41 ± 0.59
Cc1ccco1 [2-methylfuran] + CCCC[n+]1ccn(C)c1.O=S(=O)([N-]S(=O)(=O)C(F)(F)F)C(F)(F)F,1.1 ± 0.09,1.12 ± 0.1,1.15 ± 0.1,1.17 ± 0.1,1.18 ± 0.1
Cc1ccco1 [2-methylfuran] + CCCCn1cc[n+](C)c1.[Cl-],3.61 ± 0.33,3.76 ± 0.35,3.84 ± 0.35,3.96 ± 0.36,4.08 ± 0.37
c1ccccc1 [benzene] + CCCC[n+]1ccn(C)c1.O=S(=O)([N-]S(=O)(=O)C(F)(F)F)C(F)(F)F,0.938 ± 0.08,0.957 ± 0.081,0.975 ± 0.083,0.99 ± 0.084,1.01 ± 0.09
c1ccccc1 [benzene] + CCCCn1cc[n+](C)c1.[Cl-],4.09 ± 0.38,4.14 ± 0.38,4.15 ± 0.38,4.15 ± 0.38,4.12 ± 0.38
Clc1ccccc1 [chlorobenzene] + CCCC[n+]1ccn(C)c1.O=S(=O)([N-]S(=O)(=O)C(F)(F)F)C(F)(F)F,1.5 ± 0.13,1.52 ± 0.13,1.53 ± 0.13,1.54 ± 0.13,1.54 ± 0.13
Clc1ccccc1 [chlorobenzene] + CCCCn1cc[n+](C)c1.[Cl-],3.41 ± 0.31,3.58 ± 0.33,3.71 ± 0.34,3.82 ± 0.35,3.96 ± 0.36
CCO [ethanol] + CCCC[n+]1ccn(C)c1.O=S(=O)([N-]S(=O)(=O)C(F)(F)F)C(F)(F)F,1.6 ± 0.14,1.48 ± 0.13,1.37 ± 0.12,1.28 ± 0.11,1.2 ± 0.1
CCO [ethanol] + CCCCn1cc[n+](C)c1.[Cl-],–,0.208 ± 0.032,0.213 ± 0.032,0.22 ± 0.032,0.229 ± 0.033
CCc1ccccc1 [ethylbenzene] + CCCC[n+]1ccn(C)c1.O=S(=O)([N-]S(=O)(=O)C(F)(F)F)C(F)(F)F,1.98 ± 0.18,2.01 ± 0.18,2.01 ± 0.18,2.05 ± 0.18,2.07 ± 0.18
CCc1ccccc1 [ethylbenzene] + CCCCn1cc[n+](C)c1.[Cl-],12.5 ± 1.2,12.5 ± 1.2,12.4 ± 1.1,12.4 ± 1.1,12.4 ± 1.1
c1ccoc1 [furan] + CCCC[n+]1ccn(C)c1.O=S(=O)([N-]S(=O)(=O)C(F)(F)F)C(F)(F)F,0.678 ± 0.06,0.695 ± 0.061,0.711 ± 0.063,0.727 ± 0.064,0.739 ± 0.065
c1ccoc1 [furan] + CCCCn1cc[n+](C)c1.[Cl-],1.41 ± 0.13,1.48 ± 0.13,1.56 ± 0.14,1.66 ± 0.15,1.75 ± 0.16
CO [methanol] + CCCC[n+]1ccn(C)c1.O=S(=O)([N-]S(=O)(=O)C(F)(F)F)C(F)(F)F,1.26 ± 0.11,1.21 ± 0.1,1.09 ± 0.09,1.06 ± 0.09,1.03 ± 0.09
CO [methanol] + CCCCn1cc[n+](C)c1.[Cl-],–,0.1 ± 0.03,0.104 ± 0.03,0.109 ± 0.03,0.115 ± 0.03
CCCO [propan-1-ol] + CCCC[n+]1ccn(C)c1.O=S(=O)([N-]S(=O)(=O)C(F)(F)F)C(F)(F)F,1.94 ± 0.17,1.77 ± 0.16,1.63 ± 0.14,1.51 ± 0.13,1.4 ± 0.12
CCCO [propan-1-ol] + CCCCn1cc[n+](C)c1.[Cl-],–,–,0.286 ± 0.035,0.292 ± 0.036,0.301 ± 0.036
Cc1ccccc1 [toluene] + CCCC[n+]1ccn(C)c1.O=S(=O)([N-]S(=O)(=O)C(F)(F)F)C(F)(F)F,1.31 ± 0.11,1.34 ± 0.12,1.37 ± 0.12,1.39 ± 0.12,1.42 ± 0.12
Cc1ccccc1 [toluene] + CCCCn1cc[n+](C)c1.[Cl-],7.19 ± 0.66,7.24 ± 0.67,7.23 ± 0.66,7.3 ± 0.67,7.38 ± 0.68
